Experimental data reported in ChEMBL document CHEMBL5543094, “Exploration of P1 and P4 modifications of nirmatrelvir: Design, synthesis, biological evaluation, and X-ray structural studies of SARS-CoV-2 Mpro inhibitors” (Eur J Med Chem, 2024).
Activity calls are given as the source filed them. The rule behind the calls is not given here.

Assays:
SARS-CoV-2 [1] = test: Antiviral activity against SARS-CoV-2 WK-521 infected in African green monkey VeroE6/TMPRSS2 cells assessed as reduction in virus infectivity at 10 to 100 uM by immunocytochemistry analysis; type: functional, organism-based; details: Severe acute respiratory syndrome coronavirus 2, dose 10-100 µM
SARS-CoV-2 [2] = test: Antiviral activity against SARS-CoV-2 WK-521 infected in African green monkey VeroE6/TMPRSS2 cells assessed as reduction in virus infectivity at 1 uM by immunocytochemistry analysis; type: functional, organism-based; details: Severe acute respiratory syndrome coronavirus 2
[3] = molecular target: Replicase polyprotein 1ab (Severe acute respiratory syndrome coronavirus 2, UniProt P0DTD1); test: Inhibition of N-terminal hexa-histidine tagged SARS-CoV-2 main protease expressed in Escherichia coli BL21 (DE3) using HiLyte Fluor 488TM-ESATLQSGLRKAK-QXL520TM-NH2 as substrate by FRET assay
SARS-CoV-2 [4] = test: (§1) Antiviral activity against SARS-CoV-2 infected in African green monkey Vero E6 cells assessed as reduction in viral replication pre-infected with cells for 1 hr followed by compound treatment and measured after 3 days by RT-qPCR analysis; type: functional, organism-based; details: Severe acute respiratory syndrome coronavirus 2, Vero C1008
SARS-CoV-2 [5] = test: as §1, with “Potency index, ratio of nirmatrelvir EC50 to test compound EC50 for antiviral” for “Antiviral”; type: functional, Severe acute respiratory syndrome coronavirus 2; details: time 3 day

Row | Structure (SMILES) | Activity (SARS-CoV-2 [1]) | Activity (SARS-CoV-2 [2]) | Ki [3] | EC50 (SARS-CoV-2 [4]) | Ratio EC50 (SARS-CoV-2 [5])
1 | CC(C)(C)[C@H](NC(=O)C(F)(F)F)C(=O)N1C[C@H]2[C@@H]([C@H]1C(=O)N[C@H](C#N)C[C@@H]1CCNC1=O)C2(C)C | Active | inactive |  |  | 
2 | CC(C)(C)C(=O)N[C@H](C(=O)N1C[C@H]2[C@@H]([C@H]1C(=O)N[C@H](C#N)C[C@@H]1CCNC1=O)C2(C)C)C(C)(C)C |  |  | 22.1 nM | 2300 nM | 
3 | CC(C)(C)[C@H](NC(=O)OCc1cccnc1)C(=O)N1C[C@H]2[C@@H]([C@H]1C(=O)N[C@H](C#N)C[C@@H]1CCCNC1=O)C2(C)C |  |  | 0.094 nM | 3400 nM | 
4 | CCC(CC)COC(=O)[C@H](C)N[P@](=O)(OC[C@H]1O[C@@](C#N)(c2ccc3c(N)ncnn23)[C@H](O)[C@@H]1O)Oc1ccccc1 |  |  |  | 3200 nM | 
5 | CC(C)(C)[C@H](NC(=O)C(Cl)(Cl)Cl)C(=O)N1C[C@H]2[C@@H]([C@H]1C(=O)N[C@H](C#N)C[C@@H]1CCNC1=O)C2(C)C |  |  | 0.2 nM | 1600 nM | 
6 | CC(C)(C)[C@H](NC(=O)c1ccccc1)C(=O)N1C[C@H]2[C@@H]([C@H]1C(=O)N[C@H](C#N)C[C@@H]1CCNC1=O)C2(C)C |  |  | 36.9 nM | 17000 nM | 
7 | CC(C)(C)[C@H](NC(=O)C(Cl)(Cl)Cl)C(=O)N1C[C@H]2[C@@H]([C@H]1C(=O)N[C@H](C#N)C[C@@H]1CCCNC1=O)C2(C)C |  |  | 1.1 nM | 270 nM | >7
8 | CC(C)(C)NC(=O)N[C@H](C(=O)N1C[C@H]2[C@@H]([C@H]1C(=O)N[C@H](C#N)C[C@@H]1CCNC1=O)C2(C)C)C(C)(C)C |  |  |  | 100000 nM | 
9 | CC(C)(C)[C@H](NC(=O)C(F)(F)F)C(=O)N1C[C@H]2[C@@H]([C@H]1C(=O)N[C@H](C#N)C[C@@H]1CCCNC1=O)C2(C)C | Active |  | 0.04 nM | 260 nM | 7
10 | CC(C)(C)[C@H](NC(=O)OCc1cccnc1)C(=O)N1C[C@H]2[C@@H]([C@H]1C(=O)N[C@H](C#N)C[C@@H]1CCNC1=O)C2(C)C |  |  | 0.09 nM | 35 nM | 
11 | CC(C)(C)[C@H](NC(=O)OCc1ccncc1)C(=O)N1C[C@H]2[C@@H]([C@H]1C(=O)N[C@H](C#N)C[C@@H]1CCNC1=O)C2(C)C |  |  | 0.49 nM | 40100 nM | 
12 | CC(C)(C)[C@H](NC(=O)OCc1ccncc1)C(=O)N1C[C@H]2[C@@H]([C@H]1C(=O)N[C@H](C#N)C[C@@H]1CCCNC1=O)C2(C)C |  |  | 7.8 nM | 27100 nM | 
13 | CC(=O)N[C@H](C(=O)N1C[C@H]2[C@@H]([C@H]1C(=O)N[C@H](C#N)C[C@@H]1CCNC1=O)C2(C)C)C(C)(C)C |  |  | 0.44 nM | 4000 nM | 
14 | CC(C)(C)[C@H](NC(=O)OCc1ccccn1)C(=O)N1C[C@H]2[C@@H]([C@H]1C(=O)N[C@H](C#N)C[C@@H]1CCNC1=O)C2(C)C |  |  | 32.2 nM | 29700 nM | 
15 | CC(C)(C)[C@H](NC(=O)C(F)(F)F)C(=O)N1C[C@H]2[C@@H]([C@H]1C(=O)N(C(=O)C(F)(F)F)[C@H](C#N)C[C@@H]1CCNC1=O)C2(C)C |  |  | 32300 nM | 100000 nM | 
16 | CC(C)(C)[C@H](NC(=O)OCc1ccccc1)C(=O)N1C[C@H]2[C@@H]([C@H]1C(=O)N[C@H](C#N)C[C@@H]1CCNC1=O)C2(C)C |  |  | 0.025 nM | 290 nM | 
